{
  "source": "patent US20180251431A1",
  "about": "(VERTEX PHARMACEUTICALS INCORPORATED, priority 2016, published 2018)",
  "data": [
    {"test_system": "HEK293 cells", "experiment": "HEK293 VLCFA-LPC IC50 determination (13C-labeled C26:0 LPC by UHPLC/MS)", "format": "cell-based, human", "details": "Homo sapiens, HEK293, HEK293 cells; average of one or more replicates; read-out: Average HEK293 IC50", "in_short": "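Suspension HEK293 cells (final 0.5 million/mL after mixing with equal volume) incubated 48 hours with compound plus 13C-acetate (1.0 mg/mL in added media), shaking at 37° C. Lipids extracted with hexane/isopropanol or methanol, C13:0 LPC standard. UHPLC/MS of 13C-labeled C26:0 LPC (638.500/104.100 m/z); IC50 by four-parameter fit.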", "units": {"IC50": "nM"}, "values": [
      {"smiles": "O=C(Nc1ccn(-c2ccnc(F)c2)n1)C1(c2cc(Cl)ccc2F)CC1", "note": "[Compound 264, 1-(5-chloro-2-fluoro-phenyl)-N-[1-(2-fluoro-4-pyridyl)pyrazol-3-yl]cyclopropanecarboxamide]", "IC50": 190},
      {"smiles": "O=C(Nc1ccn(-c2ccccc2)n1)C1(c2cc(Cl)ccc2F)CC1", "note": "[Compound 265, 1-(5-chloro-2-fluoro-phenyl)-N-(1-phenylpyrazol-3-yl)cyclopropanecarboxamide]", "IC50": 240},
      {"smiles": "O=C(Nc1ccn(-c2ccnc(F)c2)n1)C1(c2c(F)cccc2F)CC1", "note": "[Compound 266, 1-(2,6-difluorophenyl)-N-[1-(2-fluoro-4-pyridyl)pyrazol-3-yl]cyclopropanecarboxamide]", "IC50": 17},
      {"smiles": "O=C(Nc1ccn(-c2ccccc2)n1)C1(c2c(F)cccc2F)CC1", "note": "[Compound 267, 1-(2,6-difluorophenyl)-N-(1-phenylpyrazol-3-yl)cyclopropanecarboxamide]", "IC50": 13},
      {"smiles": "O=C(Nc1ccn(-c2ccnc(F)c2)n1)C1(c2cccc(F)c2F)CC1", "note": "[Compound 268, 1-(2,3-difluorophenyl)-N-[1-(2-fluoro-4-pyridyl)pyrazol-3-yl]cyclopropanecarboxamide]", "IC50": 140},
      {"smiles": "O=C(Nc1ccn(-c2ccccc2)n1)C1(c2cccc(F)c2F)CC1", "note": "[Compound 269, 1-(2,3-difluorophenyl)-N-(1-phenylpyrazol-3-yl)cyclopropanecarboxamide]", "IC50": 98},
      {"smiles": "O=C(Nc1ccn(-c2ccnc(F)c2)n1)C1(c2cc(F)cc(F)c2)CC1", "note": "[Compound 270, 1-(3,5-difluorophenyl)-N-[1-(2-fluoro-4-pyridyl)pyrazol-3-yl]cyclopropanecarboxamide]", "IC50": 280},
      {"smiles": "O=C(Nc1ccn(-c2ccccc2)n1)C1(c2cc(F)cc(F)c2)CC1", "note": "[Compound 271, 1-(3,5-difluorophenyl)-N-(1-phenylpyrazol-3-yl)cyclopropanecarboxamide]", "IC50": 650},
      {"smiles": "Cc1ccc(F)c(C2(C(=O)Nc3ccn(-c4ccnc(F)c4)n3)CC2)c1Cl", "note": "[Compound 272, 1-(2-chloro-6-fluoro-3-methyl-phenyl)-N-[1-(2-fluoro-4-pyridyl)pyrazol-3-yl]cyclopropanecarboxamide]", "IC50": 460},
      {"smiles": "O=C(Nc1ccn(-c2ccnc(F)c2)n1)C1(c2c(F)cccc2Cl)CC1", "note": "[Compound 274, 1-(2-chloro-6-fluorophenyl)-N-(1-(2-fluoropyridin-4-yl)-1H-pyrazol-3-yl)cyclopropane-1-carboxamide]", "IC50": 37},
      {"smiles": "O=C(Nc1ccn(-c2ccccc2)n1)C1(c2c(F)cccc2Cl)CC1", "note": "[Compound 275, 1-(2-chloro-6-fluoro-phenyl)-N-(1-phenylpyrazol-3-yl)cyclopropanecarboxamide]", "IC50": 50},
      {"smiles": "[2H]C1([2H])C([2H])([2H])C1(C(=O)Nc1ccn(-c2ccnc(F)c2)n1)c1ccccc1F", "note": "[Compound 276, 2,2,3,3-tetradeuterio-1-(2-fluorophenyl)-N-[1-(2-fluoro-4-pyridyl)pyrazol-3-yl]cyclopropanecarboxamide]", "IC50": 11},
      {"smiles": "O=C(Nc1ccn(-c2ccnc(F)c2)n1)C1(c2ncccc2F)CC1", "note": "[Compound 277, 1-(3-f1uoro-2-pyridyl)-N-[1-(2-fluoro-4-pyridyl)pyrazol-3-yl]cyclopropanecarboxamide]", "IC50": 120},
      {"smiles": "O=C(Nc1ccn(-c2ccncn2)n1)C1(c2ccncc2F)CC1", "note": "[Compound 278, 1-(3-fluoro-4-pyridyl)-N-(1-pyrimidin-4-ylpyrazol-3-yl)cyclopropanecarboxamide]", "IC50": "> 5000"},
      {"smiles": "O=C(Nc1ccn(-c2ccncn2)n1)C1(c2ncccc2F)CC1", "note": "[Compound 279, 1-(3-fluoro-2-pyridyl)-N-(1-pyrimidin-4-ylpyrazol-3-yl)cyclopropanecarboxamide]", "IC50": 520},
      {"smiles": "O=C(Nc1ccn(-c2ccccc2)n1)C1(c2ccncc2F)CC1", "note": "[Compound 280, 1-(3-fluoro-4-pyridyl)-N-(1-phenylpyrazol-3-yl)cyclopropanecarboxamide]", "IC50": 770},
      {"smiles": "O=C(Nc1ccn(-c2ccccc2)n1)C1(c2ncccc2F)CC1", "note": "[Compound 281, 1-(3-fluoro-2-pyridyl)-N-(1-phenylpyrazol-3-yl)cyclopropanecarboxamide]", "IC50": 58},
      {"smiles": "Cc1ccnn1CC(=O)Nc1ccn(-c2ccnc(F)c2)n1", "note": "[Compound 282, N-[1-(2-fluoro-4-pyridyl)pyrazol-3-yl]-2-(5-methylpyrazol-1-yl)acetamide]", "IC50": "> 2000"},
      {"smiles": "O=C(Cn1cccn1)Nc1ccn(-c2ccnc(F)c2)n1", "note": "[Compound 283, N-[1-(2-fluoro-4-pyridyl)pyrazol-3-yl]-2-pyrazol-1-yl-acetamide]", "IC50": "> 5000"},
      {"smiles": "O=C(Nc1ccn(-c2ccnc(F)c2)n1)C1(c2ccc3c(c2)OC(F)(F)O3)CC1", "note": "[Compound 285, 1-(2,2-difluoro-1,3-benzodioxol-5-yl)-N-[1-(2-fluoro-4-pyridyl)pyrazol-3-yl]cyclopropanecarboxamide]", "IC50": 40},
      {"smiles": "O=C(Cn1ccnc1)Nc1ccn(-c2ccnc(F)c2)n1", "note": "[Compound 286, N-[1-(2-fluoro-4-pyridyl)pyrazol-3-yl]-2-imidazol-1-yl-acetamide]", "IC50": 5000},
      {"smiles": "O=C(Cn1cccn1)Nc1ccn(-c2ccccc2)n1", "note": "[Compound 289, N-(1-phenylpyrazol-3-yl)-2-pyrazol-1-yl-acetamide]", "IC50": "> 5000"},
      {"smiles": "Cc1cnn(CC(=O)Nc2ccn(-c3ccccc3)n2)c1", "note": "[Compound 290, 2-(4-methylpyrazol-1-yl)-N-(1-phenylpyrazol-3-yl)acetamide]", "IC50": "> 5000"},
      {"smiles": "Cc1ccn(CC(=O)Nc2ccn(-c3ccccc3)n2)n1", "note": "[Compound 291, 2-(3-methylpyrazol-1-yl)-N-(1-phenylpyrazol-3-yl)acetamide]", "IC50": "> 5000"},
      {"smiles": "O=C(Nc1ccn(-c2ccccc2)n1)C1(c2ccc3c(c2)OC(F)(F)O3)CC1", "note": "[Compound 292, 1-(2,2-difluoro-1,3-benzodioxo1-5-yl)-N-(1-phenylpyrazol-3-yl)cyclopropanecarboxamide]", "IC50": 85},
      {"smiles": "O=C(Cc1ccsc1)Nc1ccn(-c2ccnc(F)c2)n1", "note": "[Compound 293, N-[1-(2-fluoro-4-pyridyl)pyrazol-3-yl]-2-(3-thienyl)acetamide]", "IC50": 980},
      {"smiles": "CCC(C)(C(=O)Nc1ccn(-c2ccnc(F)c2)n1)c1ccccc1", "note": "(centres unmarked) [Compound 294, N-[1-(2-fluoro-4-pyridyl)pyrazol-3-yl]-2-methyl-2-phenyl-butanamide]", "IC50": 390},
      {"smiles": "O=C(Cn1cccc1)Nc1ccn(-c2ccnc(F)c2)n1", "note": "[Compound 295, N-[1-(2-fluoro-4-pyridyl)pyrazol-3-yl]-2-pyrrol-1-yl-acetamide]", "IC50": "> 5000"},
      {"smiles": "CC(C)(C(=O)Nc1ccn(-c2ccccc2)n1)c1ccccc1F", "note": "[Compound 296, 2-(2-fluorophenyl)-2-methyl-N-(1-phenylpyrazol-3-yl)propanamide]", "IC50": 1700},
      {"smiles": "O=C(Cn1cccc1)Nc1ccn(-c2ccccc2)n1", "note": "[Compound 297, N-(1-phenylpyrazol-3-yl)-2-pyrrol-1-yl-acetamide]", "IC50": 1800},
      {"smiles": "O=C(Cn1nccn1)Nc1ccn(-c2ccccc2)n1", "note": "[Compound 298, N-(1-phenylpyrazol-3-yl)-2-(triazol-2-yl)acetamide]", "IC50": "> 2000"},
      {"smiles": "O=C(Cn1nccn1)Nc1ccn(-c2ccnc(F)c2)n1", "note": "[Compound 299, N-[1-(2-fluoro-4-pyridyl)pyrazol-3-yl]-2-(triazol-2-yl)acetamide]", "IC50": 5000},
      {"smiles": "CCC(C)(C(=O)Nc1ccn(-c2ccccc2)n1)c1ccccc1", "note": "(centres unmarked) [Compound 300, 2-methyl-2-phenyl-N-(1-phenylpyrazol-3-yl)butanamide]", "IC50": 560},
      {"smiles": "O=C(Nc1ccn(-c2cc(F)cc(F)c2)n1)C1(c2ccccc2F)CC1", "note": "[Compound 301, N-[1-(3,5-difluorophenyl)pyrazol-3-yl]-1-(2-fluorophenyl)cyclopropanecarboxamide]", "IC50": 140},
      {"smiles": "Cn1ccnc1CC(=O)Nc1ccn(-c2ccnc(F)c2)n1", "note": "[Compound 302, N-[1-(2-fluoro-4-pyridyl)pyrazol-3-yl]-2-(1-methylimidazol-2-yl)acetamide]", "IC50": "> 5000"},
      {"smiles": "O=C(Cn1cncn1)Nc1ccn(-c2ccnc(F)c2)n1", "note": "[Compound 303, N-[1-(2-fluoro-4-pyridyl)pyrazol-3-yl]-2-(1,2,4-triazol-1-yl)acetamide]", "IC50": "> 5000"},
      {"smiles": "O=C(Cc1ccon1)Nc1ccn(-c2ccnc(F)c2)n1", "note": "[Compound 304, N-[1-(2-fluoro-4-pyridyl)pyrazol-3-yl]-2-isoxazol-3-yl-acetamide]", "IC50": "> 5000"},
      {"smiles": "O=C(Cc1ccon1)Nc1ccn(-c2ccccc2)n1", "note": "[Compound 306, 2-isoxazol-3-yl-N-(1-phenylpyrazol-3-yl)acetamide]", "IC50": "> 2000"},
      {"smiles": "O=C(Cc1nccs1)Nc1ccn(-c2ccnc(F)c2)n1", "note": "[Compound 307, N-[1-(2-fluoro-4-pyridyl)pyrazol-3-yl]-2-thiazol-2-yl-acetamide]", "IC50": "> 2000"},
      {"smiles": "O=C(Nc1ccn(-c2cc(F)cc(F)c2)n1)C1(c2ccccc2)CC1", "note": "[Compound 308, N-(1-(3,5-difluorophenyl)-1H-pyrazol-3-yl)-1-phenylcyclopropane-1-carboxamide]", "IC50": 140},
      {"smiles": "Cn1cccc1CC(=O)Nc1ccn(-c2ccnc(F)c2)n1", "note": "[Compound 309, N-[1-(2-fluoro-4-pyridyl)pyrazol-3-yl]-2-(1-methylpyrrol-2-yl)acetamide]", "IC50": "> 5000"},
      {"smiles": "Cn1ccnc1CC(=O)Nc1ccn(-c2ccccc2)n1", "note": "[Compound 311, 2-(1-methylimidazol-2-yl)-N-(1-phenylpyrazol-3-yl)acetamide]", "IC50": "> 5000"},
      {"smiles": "O=C(Nc1ccn(-c2ccnc(F)c2)n1)C1(c2ccncc2F)CC1", "note": "[Compound 313, 1-(3-fluoro-4-pyridyl)-N-[1-(2-fluoro-4-pyridyl)pyrazol-3-yl]cyclopropanecarboxamide]", "IC50": 1700},
      {"smiles": "COc1ccc(F)c(C2(C(=O)Nc3ccn(-c4ccnc(F)c4)n3)CC2)c1", "note": "[Compound 314, 1-(2-fluoro-5-methoxy-phenyl)-N-[1-(2-fluoro-4-pyridyl)pyrazol-3-yl]cyclopropanecarboxamide]", "IC50": 57}
    ]}
  ]
}
